Measurements as given in patent US20250304620A1, “ANTIMICROBIAL PEPTIDE AND APPLICATION THEREOF” (priority 2023, published 2025).
In brackets after ≈: the same amount, converted by molar mass. Like-named read-outs stand apart in the source and are kept apart here. Marks after values point to notes of the source that are not given here. Non-standard residues stand in square brackets, D forms with d. Residues, ends and D or L forms follow the SMILES beside them. PEG200 = polyethylene glycol 200, conjugated to the C-terminus; dPhe(3,4-F2) = N[C@H](Cc1ccc(F)c(F)c1)C(=O)O; 2Nal = N[C@@H](Cc1ccc2ccccc2c1)C(=O)O

Legend:
[1] = test system: Escherichia coli ATCC 25922; experiment: Oral formulations on mice with systemic bacterial infection; assay type: in vivo, ICR mice; settings: three times a day for 7 days; for Number of mice that died on each day after infection: day 4 / Number of mice that died on each day after infection: day 5 / Number of mice that died on each day after infection: day 6 / Number of mice that died on each day after infection: day 7 / Number of mice that died on each day after infection: day 8 / Average survival times (Days): n = 10; for Average survival times (Days): observed for 14 d
Procedure, shortened: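 Survival time and deaths were logged over a 14 d observation after oral gavage dosing (by body weight, thrice daily, 7 days, starting right after infection). Model: mixed-sex ICR mice, n=10 per group, intraperitoneal injection of E. coli ATCC 25922 suspension (0.2 mL, 1×10^7 CFU/mL).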

[2] = test system: Trichophyton ATCC MYA-4438; assay type: cell-based
Procedure, shortened: (§1)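 Serial twofold peptide dilutions were set up in microdilution format per CLSI, MICs were read, and the procedure was repeated in 5 parallel runs.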

[3] = test system: Klebsiella pneumoniae ATCC 700603; assay type: cell-based
Procedure, shortened: as §1

[4] = test system: Corynebacterium ATCC 7715; assay type: cell-based
Procedure, shortened: as §1

[5] = test system: Pseudomonas aeruginosa ATCC 27853; assay type: cell-based
Procedure, shortened: as §1

Enterococcus ATCC 29212 = assay type: cell-based
Procedure, shortened: as §1

[6] = test system: Candida tropicalis ATCC 750; assay type: cell-based
Procedure, shortened: as §1

[7] = test system: Candida albicans ATCC MYA-2876; assay type: cell-based
Procedure, shortened: as §1

[8] = test system: Escherichia coli ATCC 25922; assay type: cell-based
Procedure, shortened: as §1

Candida krusei ATCC 6258 = assay type: cell-based
Procedure, shortened: as §1

[9] = test system: Serratia marcescens ATCC 29021; assay type: cell-based
Procedure, shortened: as §1

[10] = test system: Pseudomonas aeruginosa ATCC 27853; experiment: Injectable formulations on mice infected with peritonitis; assay type: in vivo, ICR mice; settings: twice a day for 3 days; for Number of mice that died on each day after infection: day 1 / Number of mice that died on each day after infection: day 2 / Number of mice that died on each day after infection: day 3 / Number of mice that died on each day after infection: day 4 / Number of mice that died on each day after infection: day 5 / Average survival times (Days): n = 10; for Average survival times (Days): observed for 14 d
Procedure, shortened: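 Survival readout: deaths and survival time tracked for 14 d. Treatment was tail-vein injection by body weight, twice a day for 3 consecutive days, starting right after intraperitoneal challenge with 0.2 mL of 1×10^9 CFU/mL P. aeruginosa ATCC 27853 in male and female ICR mice.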

[11] = test system: Staphylococcus aureus (NRS 384)
Method: Trypsin (250 U/mg, pH=8.0) and AMPs (LV-1 to LV-30) were mixed in a ratio of 1:10 (w/w) and added to a reaction buffer (0.2 M sodium phosphate, 1 mM CaCl2), pH 7.5), and then incubated at 37° C. for 3 h.

[12] = test system: carbapenem-resistant Klebsiella pneumoniae (CRKP); assay type: cell-based
Procedure, shortened: (§2)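 Read-out is the minimum inhibitory concentration, obtained by twofold serial dilution in microdilution format per CLSI guidance, with five parallel runs.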

[13] = test system: vancomycin-resistant Enterococcus (VRE); assay type: cell-based
Procedure, shortened: as §2

[14] = test system: carbapenem-resistant Pseudomonas aeruginosa (CRPA); assay type: cell-based
Procedure, shortened: as §2

[15] = test system: Methicillin-resistant Staphylococcus aureus (MRSA); assay type: cell-based
Procedure, shortened: as §2

[16] = test system: carbapenem-resistant Escherichia coli (CREC); assay type: cell-based
Procedure, shortened: as §2

[17] = test system: Shigella flexneri ATCC 12022; experiment: MIC against clinically common bacterial strain; assay type: cell-based
Procedure, shortened: as §1

CC(=O)N[C@H](CCCCN)C(=O)N[C@H](CCCCN)C(=O)N[C@H](CC(C)C)C(=O)N[C@H](CC(C)C)C(=O)N[C@H](Cc1ccc(F)c(F)c1)C(=O)N[C@H](CCCNC(=N)N)C(=O)N[C@H](CC(C)C)C(=O)N[C@H](CCCCN)C(=O)N[C@H](Cc1ccc(F)c(F)c1)C(=O)N[C@H](CCCNC(=N)N)C(=O)N[C@H](CCCCN)C(N)=O [LV-25] (Ac-[dK][dK][dL][dL][dPhe(3,4-F2)][dR][dL][dK][dPhe(3,4-F2)][dR][dK]-NH2)
Number of mice that died on each day after infection: day 4 ([1]; 0.2 mg/kg gavage): 1 Mouse | Number of mice that died on each day after infection: day 5 ([1]; 0.2 mg/kg gavage): 1 Mouse | Number of mice that died on each day after infection: day 6 ([1]; 0.2 mg/kg gavage): 2 Mouse | Number of mice that died on each day after infection: day 7 ([1]; 0.2 mg/kg gavage): 2 Mouse | Number of mice that died on each day after infection: day 8 ([1]; 0.2 mg/kg gavage): 1 Mouse | Average survival times (Days) ([1]; 0.2 mg/kg gavage): 8.5** Days | Number of mice that died on each day after infection: day 4 ([1]; 1 mg/kg gavage): 1 Mouse | Number of mice that died on each day after infection: day 5 ([1]; 1 mg/kg gavage): 1 Mouse | Number of mice that died on each day after infection: day 6 ([1]; 1 mg/kg gavage): 0 Mouse | Number of mice that died on each day after infection: day 7 ([1]; 1 mg/kg gavage): 1 Mouse | Number of mice that died on each day after infection: day 8 ([1]; 1 mg/kg gavage): 1 Mouse | Average survival times (Days) ([1]; 1 mg/kg gavage): 10.8*** Days | Number of mice that died on each day after infection: day 4 ([1]; 5 mg/kg gavage): 0 Mouse | Number of mice that died on each day after infection: day 5 ([1]; 5 mg/kg gavage): 3 Mouse | Number of mice that died on each day after infection: day 6 ([1]; 5 mg/kg gavage): 0 Mouse | Number of mice that died on each day after infection: day 7 ([1]; 5 mg/kg gavage): 2 Mouse | Number of mice that died on each day after infection: day 8 ([1]; 5 mg/kg gavage): 0 Mouse | Average survival times (Days) ([1]; 5 mg/kg gavage): 9.9** Days | survival time of mice infected with Escherichia coli ([1]; gavage, observed 14 d): superior to those of the Levofloxacin group | MIC Trichophyton ATCC MYA-4438 [2]: 8 µg/mL (≈ 5.03 µM) | MIC Klebsiella pneumoniae ATCC 700603 [3]: 8 µg/mL (≈ 5.03 µM) | MIC Corynebacterium ATCC 7715 [4]: 2 µg/mL (≈ 1.26 µM) | MIC Pseudomonas aeruginosa ATCC 27853 [5]: 1 µg/mL (≈ 0.629 µM) | MIC Enterococcus ATCC 29212 (Enterococcus ATCC 29212): 2 µg/mL (≈ 1.26 µM) | MIC Candida tropicalis ATCC 750 [6]: 8 µg/mL (≈ 5.03 µM) | MIC Candida albicans ATCC MYA-2876 [7]: 8 µg/mL (≈ 5.03 µM) | MIC Escherichia coli ATCC 25922 [8]: 1 µg/mL (≈ 0.629 µM) | MIC Candida krusei ATCC 6258 (Candida krusei ATCC 6258): 8 µg/mL (≈ 5.03 µM) | MIC Serratia marcescens ATCC 29021 [9]: 4 µg/mL (≈ 2.52 µM) | Number of mice that died on each day after infection: day 1 ([10]; 0.2 mg/kg via tail vein): 2 Mouse | Number of mice that died on each day after infection: day 2 ([10]; 0.2 mg/kg via tail vein): 1 Mouse | Number of mice that died on each day after infection: day 3 ([10]; 0.2 mg/kg via tail vein): 1 Mouse | Number of mice that died on each day after infection: day 4 ([10]; 0.2 mg/kg via tail vein): 1 Mouse | Number of mice that died on each day after infection: day 5 ([10]; 0.2 mg/kg via tail vein): 1 Mouse | Average survival times (Days) ([10]; 0.2 mg/kg via tail vein): 7.2** Days | Number of mice that died on each day after infection: day 1 ([10]; 1 mg/kg via tail vein): 0 Mouse | Number of mice that died on each day after infection: day 2 ([10]; 1 mg/kg via tail vein): 1 Mouse | Number of mice that died on each day after infection: day 3 ([10]; 1 mg/kg via tail vein): 1 Mouse | Number of mice that died on each day after infection: day 4 ([10]; 1 mg/kg via tail vein): 0 Mouse | Number of mice that died on each day after infection: day 5 ([10]; 1 mg/kg via tail vein): 1 Mouse | Average survival times (Days) ([10]; 1 mg/kg via tail vein): 10.8**** Days | Number of mice that died on each day after infection: day 1 ([10]; 5 mg/kg via tail vein): 0 Mouse | Number of mice that died on each day after infection: day 2 ([10]; 5 mg/kg via tail vein): 3 Mouse | Number of mice that died on each day after infection: day 3 ([10]; 5 mg/kg via tail vein): 0 Mouse | Number of mice that died on each day after infection: day 4 ([10]; 5 mg/kg via tail vein): 0 Mouse | Number of mice that died on each day after infection: day 5 ([10]; 5 mg/kg via tail vein): 0 Mouse | Average survival times (Days) ([10]; 5 mg/kg via tail vein): 10.4**** Days | survival time of mice infected with Pseudomonas aeruginosa ([10]; tail vein, observed 14 d): superior to those of the Levofloxacin group | Trypsin MIC ([11]; NRS 384, 3 h): 1 µg/mL | MIC CRKP ([12]; carbapenem-resistant (CRKP)): 8 µg/mL (≈ 5.03 µM) | MIC VRE [13]: 8 µg/mL (≈ 5.03 µM) | MIC CRPA ([14]; carbapenem-resistant (CRPA)): 4 µg/mL (≈ 2.52 µM) | MIC MRSA ([15]; Methicillin-resistant): 2 µg/mL (≈ 1.26 µM) | MIC CREC ([16]; carbapenem-resistant (CREC)): 4 µg/mL (≈ 2.52 µM) | MIC Shigella flexneri ATCC 12022 [17]: 2 µg/mL (≈ 1.26 µM)

Ac-RKLLXRLKXRK-PEG200 [LV-26] (Ac-RKLL[2Nal]RLK[2Nal]RK-PEG200) [polyethylene glycol 200 conjugated to C-terminal; X=3-(2-naphthyl)-alanine]
Number of mice that died on each day after infection: day 4 ([1]; 1 mg/kg gavage): 2 Mouse | Number of mice that died on each day after infection: day 5 ([1]; 1 mg/kg gavage): 1 Mouse | Number of mice that died on each day after infection: day 6 ([1]; 1 mg/kg gavage): 0 Mouse | Number of mice that died on each day after infection: day 7 ([1]; 1 mg/kg gavage): 1 Mouse | Number of mice that died on each day after infection: day 8 ([1]; 1 mg/kg gavage): 1 Mouse | Average survival times (Days) ([1]; 1 mg/kg gavage): 9.8** Days | MIC Trichophyton ATCC MYA-4438 [2]: 16 µg/mL | MIC Klebsiella pneumoniae ATCC 700603 [3]: 4 µg/mL | MIC Corynebacterium ATCC 7715 [4]: 2 µg/mL | MIC Pseudomonas aeruginosa ATCC 27853 [5]: 4 µg/mL | MIC Enterococcus ATCC 29212 (Enterococcus ATCC 29212): 8 µg/mL | MIC Candida tropicalis ATCC 750 [6]: 8 µg/mL | MIC Candida albicans ATCC MYA-2876 [7]: 8 µg/mL | MIC Escherichia coli ATCC 25922 [8]: 2 µg/mL | MIC Candida krusei ATCC 6258 (Candida krusei ATCC 6258): 4 µg/mL | MIC Serratia marcescens ATCC 29021 [9]: 8 µg/mL | Number of mice that died on each day after infection: day 1 ([10]; 1 mg/kg via tail vein): 1 Mouse | Number of mice that died on each day after infection: day 2 ([10]; 1 mg/kg via tail vein): 1 Mouse | Number of mice that died on each day after infection: day 3 ([10]; 1 mg/kg via tail vein): 1 Mouse | Number of mice that died on each day after infection: day 4 ([10]; 1 mg/kg via tail vein): 1 Mouse | Number of mice that died on each day after infection: day 5 ([10]; 1 mg/kg via tail vein): 1 Mouse | Average survival times (Days) ([10]; 1 mg/kg via tail vein): 8.5** Days | Trypsin MIC ([11]; MIC vs Staphylococcus aureus (NRS 384) after trypsin treatment 1:10 (w/w), 37° C., 3 h): 1 µg/mL | MIC CRKP ([12]; drug-resistant strain CRKP): 2 µg/mL | MIC VRE ([13]; drug-resistant strain VRE): 2 µg/mL | MIC CRPA ([14]; drug-resistant strain CRPA): 4 µg/mL | MIC MRSA ([15]; drug-resistant strain MRSA): 4 µg/mL | MIC CREC ([16]; drug-resistant strain CREC): 8 µg/mL | MIC Shigella flexneri ATCC 12022 [17]: 4 µg/mL
